Laboratory results published in US5229288A, “Cytotoxicity test method” (priority 1990, dated 1993).
Numbered stars: 1 amine (or outer) side, 2 acyl side, 3 side chain; on linkers, the order of the positions; unused ones are H or OH. Bridge positions count the residues as written; N and C are the ends. Square brackets hold non-standard residues; d marks the D form. Peptide text beside a SMILES is read from it. I, II: the chains in the order shown. Actinocin(9to1) = Cc1c2oc3c(C)ccc(C(=O)[*:1])c3nc-2c(C(=O)[*:2])c(N)c1=O; NMeV = CN[C@H](C(=O)O)C(C)C; Sar = CNCC(=O)O

Tests used:
[1] = shrinkage of detached cell sheet to spherical cell aggregate (cytotoxicity test method of the invention), phase contrast microscopy; conditions: human, skin fibroblasts
Experimental: (§1) N-Isopropylacrylamide monomer (here "NIPAAm", a product of Eastman Kodak Co.) 50 g was dissolved in 500 ml benzene. 2,2'-Azobisisobutyronitrile (here "AIBN") 0.2 g was used as the polymerization initiator. Polymerization was carried out at 60° C. for 12 hours in a stream of nitrogen gas with constant agitation. The polymer thus obtained was precipitated in benzene and after decantation the precipitates formed were dissolved in tetrahydrofuran and purified with ethyl ether. […] This mixed solution was poured on the bottom of a commercially available plastic culture dish (Falcon, 35 mm), and it was air-dried aseptically in a clean bench at about 10° C. […] Fibroblasts derived from human skin were suspended in Dulbecco's modified Eagle medium ("DMEM", a product of GIBCO, containing 10% (w/v) calf serum) (cell concentration in the suspension: about 2×10^5 cells/ml). Two milliliters of this cell suspension was incubated at 37° C., and then it was poured in the coated dish which was pre-incubated at 37° C. It was cultured at 37° C. for 3 days in an air/5 volume% CO2 gas incubator. After 3 days at which point the cultured cells covered the surface of the bottom of the dish completely, the dish was taken out from the 37° C. incubator and left to stand at 4° C. on ice. After the cell sheet was completely detached from the surface of the bottom of the dish, the old medium was discarded and the sheet was washed twice with fresh medium at 4° C. to remove the dissolved polymer and the collagen.
(§2) During the shrinking process, the cell aggregate was examined at different times by a phase contrast microscope. Size (average values of longer diameter and shorter diameter) of the cell aggregate was measured, and % shrinkage which is a relative value considering the diameter of the cell sheet immediately after the detachment as 100% was calculated, and the results were plotted against time as shown in FIG. 1.
(§3) After a cell sheet was detached and transferred onto a hydrophobic dish in the same manner as in the Control Example, cycloheximide (here "CH") was added to the culture medium for the cell sheet to bring the concentration to 0.3 and 3μg/ml of medium, respectively. The shrinkage process of the detached cell sheet was examined by the phase contrast microscopy while the cell sheet was cultured in the culture medium containing CH in the hydrophobic dish. […] At the second day after detachment, as shown in FIG. 2A by an arrow sign, the added CH was completely removed by washing the cell aggregate with fresh culture medium and then transferring it into the vessel containing fresh culture medium.
(§4) Twelve hours before a cell sheet was detached from the cell culture substrate and transferred onto a hydrophobic dish in the same manner as in Control Example, actinomycin D (here "AD") was added to the culture medium to bring the concentration to 0.003 and 0.03 μg/ml of medium, respectively. Then the shrinkage process of the detached cell sheet was examined by phase contrast microscopy while the detached cell sheet was cultured in the culture medium containing 0.003 and 0.03 μg/ml (medium) of AD, respectively, in the hydrophobic dish.

[2] = tested on: fibroblasts derived from human skin; experiment: as above
Experimental: as §1, §2, §3, §4

[3] = conventional monolayer culture on plastic tissue culture dish, morphological change under phase contrast microscope (Comparative Example); format: cell-based, human; conditions: human, skin fibroblasts; conventional monolayer culture; read-out: concentration for the detection of cytotoxicity by conventional monolayer culture
Experimental: (§5) The fibroblasts derived from human skin as used in Example 1 were cultured for 3 days on a plastic tissue culture dish (Falcon, 35 mm), and then cycloheximide and actinomycin D were added, respectively, in such an amount that the concentration of the medium would be 10 μg/ml, and the morphological change of the cells was examined under a phase contrast microscope. […] In contrast, the concentration for the detection of cytotoxicity by the conventional monolayer culture such as shown in this Comparative Example was higher than 10 μg/ml.

[4] = tested on: fibroblasts derived from human skin; experiment: as above; format: cell-based; conditions: 10 μg/ml, monolayer cultured for 3 days before addition
Experimental: as §5

[5] = CH more than 3 μg/ml, added after detachment and transfer, FIG. 2A
[6] = AD more than 0.03 μg/ml, added twelve hours before detachment, FIG. 2B

Row | SMILES | MCC [1] | formation of spherical cell aggregate [2, 5] | shrinkage behavior of phase II (0.5 th to second day after detachment) [2, 5] | shrinkage after removal of CH (reversibility) ([2]; CH removed by washing at second day after detachment, FIG. 2A) | MCC [3] | morphological change of the cells [4] | formation of spherical cell aggregate [2, 6] | shrinkage behavior of phase II (0.5 th to second day after detachment) [2, 6] | shrinkage after removal of AD (reversibility) ([2]; AD removed by washing at second day after detachment, FIG. 2B) | concentration of AD which inhibits phase II relative to that of CH ([2]; ratio AD to CH)
1 | C[C@@H]1C[C@@H]([C@H](O)CC2CC(=O)NC(=O)C2)C(=O)[C@@H](C)C1 [CH, cycloheximide] | 3 µg/mL | no formation of any spherical cell aggregate was observed | completely interrupted | the shrinkage started again | > 10 µg/mL | No morphological change was observed at all | – | – | – | –
2 | Cc1c2oc3c(C)ccc(C(=O)N[C@@H]4C(=O)N[C@H](C(C)C)C(=O)N5CCC[C@H]5C(=O)N(C)CC(=O)N(C)[C@@H](C(C)C)C(=O)O[C@@H]4C)c3nc-2c(C(=O)N[C@@H]2C(=O)N[C@H](C(C)C)C(=O)N3CCC[C@H]3C(=O)N(C)CC(=O)N(C)[C@@H](C(C)C)C(=O)O[C@@H]2C)c(N)c1=O [AD, actinomycin D] (I: T[dV]P[Sar][NMeV] / II: T[dV]P[Sar][NMeV]; ester I:1-I:C, II:1-II:C; linker I:N-II:N via Actinocin(9to1)) | 0.03 µg/mL | – | – | – | > 10 µg/mL | No morphological change was observed at all | no formation of any spherical cell aggregate was observed | significantly interrupted | the shrinkage started again | about 1/100
